The values below come from patent publication US9174951B2, “Glucose transporter inhibitors” (The Ohio State University Research Foundation, priority 2012, dated 2015).

Test [1] relates to LNCaP cells. Briefly: MTT cell viability assay, LNCaP. It counts as cell-based, human. As to conditions: Homo sapiens, LNCaP, 72 h, MTT, 10% FBS. How it is done:
Cell Viability Assay. Cell viability was determined using the 3-(4,5-dimethylthiazol-2-yl)-2,5-diphenyltetrazolium bromide (MTT) assay. Cancer cells were seeded at 5000 cells/well and normal cells were seeded at 8000 cells/well in 96-well plates and incubated in 10% FBS-supplemented medium for 24 h. Cells were then treated with individual agents for 72 h. Drug-containing medium was replaced with medium containing MTT (0.5 mg/mL), followed by incubation at 37° C. for 1 h. After removal of medium, the reduced MTT dye in each well was solubilized in 100 μL of DMSO and absorbance at 570 nm was measured.
Compound 30 was evaluated for antiproliferative activity in panels of different human cancer cells lines, including those of prostate, breast and pancreatic cancers. In all experiments, cells were treated with a range of concentrations of Compound 30 in the presence of 10% fetal bovine serum (FBS). Cell viability was then determined after 72 h of treatment using the 3-(4,5-dimethylthiazol-2-yl)-2,5-diphenyltetrazolium bromide (MTT) assay. […] It is noteworthy that despite this high antiproliferative potency, normal human prostate epithelial cells (PrECs) were resistant to the cytotoxic effect of Compound 30 even at 10 μM.
On the technique in general: Tetrazolium dyes change colour on reduction, which living cells bring about.

Test [2] concerns LNCaP cells. Description: [3H]2-DG glucose uptake assay in LNCaP cells. The test is classed as cell-based, human. As to conditions: for IC50: Homo sapiens, LNCaP, Krebs-Ringer phosphate buffer, 37° C., 30 min of drug treatment, read-out: IC50 in blocking [3H]2-DG uptake into LNCaP cells; for inhibition of [3H]2-DG uptake into LNCaP cells (screening, in words): each at 5 μM, 30 min of exposure. How it is done: Screening of the focused compound library to identify lead glucose uptake inhibitors.
Glucose Uptake Assay. LNCaP cells were seeded in six-well plates (3×10^5 cells/well) for 24 h. […] The cells were lysed in […] lysis buffer (10 mM Tris-HCl pH 8.0, 0.1% SDS) and aliquots were taken for measurement of radioactivity using a scintillation counter (Beckman LS6500).

In the case of `CC1(COc2ccc(CC3SC(=O)NC3=O)cc2)CCCCC1` (stereo not shown) [Compound 1, ciglitazone, reference compound], the IC50 (in general, the concentration that gives 50% inhibition) with LNCaP cells [1] was determined as 60 µM; with LNCaP cells [2], 78 µM.
On the same counts, the results for `CC1(COc2ccc(/C=C3\SC(=O)NC3=O)cc2)CCCCC1` [Compound 2, (Z)-5-(4-[(1-methylcyclohexyl)methoxy]benzylidene)-thiazolidine-2,4-dione, reference compound] are 28 µM and 52 µM.
The like results for `CC1(CN2C(=O)S/C(=C\c3ccc(O)c(C(F)(F)F)c3)C2=O)CCCCC1` [Compound 4, (Z)-5-(4-hydroxy-3-(trifluoromethyl)benzylidene)-3-((1-methylcyclohexyl)methyl)thiazolidine-2,4-dione, reference compound] were, in that order, 6 µM and 9 µM.
Consider `O=C1SC(=Cc2ccc(O)c(C(F)(F)F)c2)C(=O)N1CC(CC(F)(F)F)CC(F)(F)F` [Compound 28, 5-(4-Hydroxy-3-trifluoromethyl-benzylidene)-3-[4,4,4-trifluoro-2-(2,2,2-trifluoro-ethyl)-butyl]-thiazolidine-2,4-dione], for which, in the test with LNCaP cells [1], the IC50 worked out at 2.2 µM. Also, in the test on LNCaP cells [2], the half-inhibitory concentration (IC50) worked out at 3.5 µM and the “inhibition of [3H]2-DG uptake into LNCaP cells (screening, in words)” value is on record as “substantially improved potency relative to compound 5”.
`O=C1SC(=Cc2ccc(O)c(C(F)(F)F)c2)C(=O)N1CC(F)(CC(F)(F)F)CC(F)(F)F` [Compound 29, 5-(4-Hydroxy-3-trifluoromethyl-benzylidene)-3-[2,4,4,4-tetrafluoro-2-(2,2,2-trifluoro-ethyl)-butyl]-thiazolidine-2,4-dione]: the “inhibition of [3H]2-DG uptake into LNCaP cells (screening, in words)” value with LNCaP cells [2] was “substantially improved potency relative to compound 5”.
